From EP4741394A1, “CRYSTAL FORM OF [1,2,4]TRIAZOLO[4,3-B]PYRIDAZINE COMPOUND, AND PREPARATION METHOD THEREFOR AND USE THEREOF” (Beijing Pearl Biotechnology Limited Liability Company, priority 2023, dated 2025)
Blank lines part the entries; values can stand above or below the compound they belong to.

Tests used:
Format in all cases: physicochemical
[1] = Thermal and moisture stability of crystal forms (HPLC and XRPD after storage in a stability test chamber); conditions: for degradation: under the test conditions of Table 1; for crystal form change (overlay of XRPD forms): under the test conditions, FIGS. 15 and 16
Procedure: (§1) The crystal form of the samples was analyzed using a Bruker D8 ADVANCE or Bruker D8 Focus X-ray powder diffractometer. The samples were scanned with the 2θ scanning angle of 3° to 42°, the scanning step of 0.02°, and the scanning time of 0.05 s or 0.1 s or 0.2 s per step. The voltage and current for fluorescent tubes were 40 kV and 40 mA, respectively. During sample preparation, an appropriate amount of samples were placed on a sample tray and flattened with a glass sheet or other tools to ensure a smooth and flat surface.
Solubility and stability tests were carried out using Agilient 1260 HPLC under the following conditions: column: ZORBAX Eclipse Plus Cl8 4.6* 100 mm 3.5-Micron; flow rate: 1 mL/min; column temperature: 35 °C; injection volume: 10 µL; mobile phases: mobile phase A: 0.02 mol/L potassium dihydrogen phosphate, and mobile phase B: ACN; running time: 40 min; detector: UV at 210 nm; diluent: ACN; and injection concentration: 0.2 mg/mL.
A certain amount of samples of the crystal forms A (prepared according to the preparation method 1 of Example 1) and B (prepared according to the method of Example 2) of the compound of formula (I) were placed into a stability test chamber, and taken out for HPLC and XRPD testing after a certain period of time.
Test conditions were as follows: under open conditions at 25 °C with 60% RH (25 °C/60% RH) or at 40 °C with 75% RH (40 °C/75% RH), HPLC and XRPD was characterized after one week, two weeks, 1 month and 2 months respectively; and HPLC and XRPD were characterized under closed conditions at 80 °C for one day and under closed conditions with lighting for 10 days, respectively. Table 1: Results of Stability of Crystal Forms A and B

[2] = Stability of crystal forms in aqueous medium at 37 °C (XRPD of solids from 5 mg/mL suspension); conditions: for XRPD: 37 °C; for crystal form transformation: 24 hours
Procedure: as §1
Table 2: Results of Stability of Crystal Forms A and B in Aqueous Medium at 37 °C

[3] = Solid dispersion by hot-melt extrusion with Povidone K30: content of related substance D1 and of active ingredient; conditions: for Content of related substance D1 in starting material: before hot-melt extrusion, Not detected: detected content < 0.0045%; for Content of active pharmaceutical ingredient in sample / Content of related substance D1 in sample: solid dispersion, Povidone K30 1:3, hot-melt extrusion up to 200 °C
From the text: Under the same hot-melt extrusion conditions, the contents of related substance D1 in the solid dispersions prepared from the crystal forms A (prepared according to the preparation method 1 of Example 1) and B (prepared according to the preparation method of Example 2) were investigated, respectively. The structure of the related substance D1 is represented by formula (II). [drawing 4]
Preparation of solid dispersion by hot-melt extrusion: the active pharmaceutical ingredient of crystal form A (prepared according to the preparation method 1 of Example 1) or B (prepared according to the method of Example 2) and Povidone K30 were weighed respectively and then evenly mixed at a ratio of 1:3; after the temperature of each temperature zone for hot-melt […] reached 130 °C, 150 °C, 180 °C, 195 °C, 200 °C, 200 °C, 200 °C, and 200 °C and balanced for 15 min, the mixture was added to the hopper of an extruder; and the resulting solids were collected and left to cool at room temperature, and then tested for the content of the related substance D1, respectively. Table 3: Results of Prepared Samples of Crystal Forms A and B
Not detected: the detected content of related substance D1 was < 0.0045%.

[4] = Hygroscopic weight gain test
Procedure: On Days 0, 20 and 25, the samples were set out respectively, with the temperature and humidity conditions controlled to 25 ± 2 °C/75 ± 5% RH and 25 ± 2 °C/90 ± 5% RH. All samples were sampled and weighed on Day 30 to calculate the hygroscopic weight gain (%).

[5] = Impact of drying conditions on crystal form stability (XRPD); conditions: wet samples dried at 40 °C or 60 °C under vacuum, or under nitrogen at room temperature or 40 °C; 0 h to 48 h
Procedure: as §1

[6] = FeSSIF, 24 h (first FeSSIF line)
[7] = FeSSIF, 24 h (second FeSSIF line)

Degradation (%) ([1]; 25 °C/60% RH, open, 1 month): 0%
Purity (%) ([1]; 25 °C/60% RH, open, 1 month): 99.98%
XRPD ([1]; 25 °C/60% RH, open, 1 month): Unchanged
Degradation (%) ([1]; 25 °C/60% RH, open, 1 week): 0%
Purity (%) ([1]; 25 °C/60% RH, open, 1 week): 99.98%
XRPD ([1]; 25 °C/60% RH, open, 1 week): Unchanged
Degradation (%) ([1]; 25 °C/60% RH, open, 2 months): 0.01%
Purity (%) ([1]; 25 °C/60% RH, open, 2 months): 99.97%
XRPD ([1]; 25 °C/60% RH, open, 2 months): Unchanged
Degradation (%) ([1]; 25 °C/60% RH, open, 2 weeks): 0%
Purity (%) ([1]; 25 °C/60% RH, open, 2 weeks): 99.98%
XRPD ([1]; 25 °C/60% RH, open, 2 weeks): Unchanged
Degradation (%) ([1]; 40 °C/75% RH, open, 1 month): 0%
Purity (%) ([1]; 40 °C/75% RH, open, 1 month): 99.98%
XRPD ([1]; 40 °C/75% RH, open, 1 month): Unchanged
Degradation (%) ([1]; 40 °C/75% RH, open, 1 week): 0.01%
Purity (%) ([1]; 40 °C/75% RH, open, 1 week): 99.97%
XRPD ([1]; 40 °C/75% RH, open, 1 week): Unchanged
Degradation (%) ([1]; 40 °C/75% RH, open, 2 months): 0.02%
Purity (%) ([1]; 40 °C/75% RH, open, 2 months): 99.96%
XRPD ([1]; 40 °C/75% RH, open, 2 months): Unchanged
Degradation (%) ([1]; 40 °C/75% RH, open, 2 weeks): -0.01%
Purity (%) ([1]; 40 °C/75% RH, open, 2 weeks): 99.99%
XRPD ([1]; 40 °C/75% RH, open, 2 weeks): Unchanged
Degradation (%) ([1]; 80 °C, closed, 1 d): 0.01%
Purity (%) ([1]; 80 °C, closed, 1 d): 99.97%
XRPD ([1]; 80 °C, closed, 1 d): Unchanged
Degradation (%) ([1]; Lighting control, 10 d): 0%
Purity (%) ([1]; Lighting control, 10 d): 99.98%
XRPD ([1]; Lighting control, 10 d): Unchanged
Degradation (%) ([1]; Lighting, closed, 10 d): 0%
Purity (%) ([1]; Lighting, closed, 10 d): 99.98%
XRPD ([1]; Lighting, closed, 10 d): Unchanged
Purity (%) ([1]; Start): 99.98%
degradation [1]: almost no degradation
crystal form change (overlay of XRPD forms) [1]: have not changed
XRPD ([2]; FaSSIF, 24 h): Unchanged
XRPD [2, 6]: Unchanged
XRPD [2, 7]: Unchanged
XRPD ([2]; Water, 24 h): Unchanged
crystal form change ([2]; all media): no change
XRPD ([2]; pH 1.2 buffer, 24 h): Unchanged
XRPD ([2]; pH 3.0 buffer, 24 h): Unchanged
XRPD ([2]; pH 4.5 buffer, 24 h): Unchanged
XRPD ([2]; pH 6.8 buffer, 24 h): Unchanged
XRPD ([2]; pH 7.4 buffer, 24 h): Unchanged
Content of related substance D1 in starting material [3]: Not detected
Content of active pharmaceutical ingredient in sample [3]: 101.8%
Content of related substance D1 in sample [3]: 0.05%
Hygroscopic weight gain (%) ([4]; 25 + 2°C/90 + 5% RH, 5 days): 1%
Hygroscopic weight gain (%) ([4]; 25 + 2°C/90 + 5% RH, 10 days): 1%
Hygroscopic weight gain (%) ([4]; 25 + 2°C/90 + 5% RH, 30 days): 1%
Hygroscopic weight gain (%) ([4]; 25 ± 2°C/75 + 5% RH, 5 days): 1%
Hygroscopic weight gain (%) ([4]; 25 ± 2°C/75 + 5% RH, 10 days): 1%
Hygroscopic weight gain (%) ([4]; 25 ± 2°C/75 + 5% RH, 30 days): 1%
hygroscopic weight gain ([4]; high humidity conditions for 5 days, 10 days and 30 days (text summary; less than 2%, slight hygroscopicity)): approximately 1%
SMILES: Cn1cc2cc(C(F)(F)c3nnc4ccc(-c5cnn(C6CC6)c5)nn34)c(F)cc2n1 [Crystal form B]
crystal form during drying (XRPD) [5]: no other crystal forms appear during drying

Degradation (%) ([1]; 25 °C/60% RH, open, 1 month): 0%
Purity (%) ([1]; 25 °C/60% RH, open, 1 month): 99.98%
XRPD ([1]; 25 °C/60% RH, open, 1 month): Unchanged
Degradation (%) ([1]; 25 °C/60% RH, open, 1 week): 0%
Purity (%) ([1]; 25 °C/60% RH, open, 1 week): 99.98%
XRPD ([1]; 25 °C/60% RH, open, 1 week): Unchanged
Degradation (%) ([1]; 25 °C/60% RH, open, 2 months): 0%
Purity (%) ([1]; 25 °C/60% RH, open, 2 months): 99.98%
XRPD ([1]; 25 °C/60% RH, open, 2 months): Unchanged
Degradation (%) ([1]; 25 °C/60% RH, open, 2 weeks): 0%
Purity (%) ([1]; 25 °C/60% RH, open, 2 weeks): 99.98%
XRPD ([1]; 25 °C/60% RH, open, 2 weeks): Unchanged
Degradation (%) ([1]; 40 °C/75% RH, open, 1 month): 0%
Purity (%) ([1]; 40 °C/75% RH, open, 1 month): 99.98%
XRPD ([1]; 40 °C/75% RH, open, 1 month): Unchanged
Degradation (%) ([1]; 40 °C/75% RH, open, 1 week): 0.01%
Purity (%) ([1]; 40 °C/75% RH, open, 1 week): 99.97%
XRPD ([1]; 40 °C/75% RH, open, 1 week): Unchanged
Degradation (%) ([1]; 40 °C/75% RH, open, 2 months): 0.01%
Purity (%) ([1]; 40 °C/75% RH, open, 2 months): 99.97%
XRPD ([1]; 40 °C/75% RH, open, 2 months): Unchanged
Degradation (%) ([1]; 40 °C/75% RH, open, 2 weeks): 0%
Purity (%) ([1]; 40 °C/75% RH, open, 2 weeks): 99.98%
XRPD ([1]; 40 °C/75% RH, open, 2 weeks): Unchanged
Degradation (%) ([1]; 80 °C, closed, 1 d): 0%
Purity (%) ([1]; 80 °C, closed, 1 d): 99.98%
XRPD ([1]; 80 °C, closed, 1 d): Unchanged
Degradation (%) ([1]; Lighting control, 10 d): 0%
Purity (%) ([1]; Lighting control, 10 d): 99.98%
XRPD ([1]; Lighting control, 10 d): Unchanged
Degradation (%) ([1]; Lighting, closed, 10 d): 0%
Purity (%) ([1]; Lighting, closed, 10 d): 99.98%
XRPD ([1]; Lighting, closed, 10 d): Unchanged
Purity (%) ([1]; Start): 99.98%
degradation [1]: almost no degradation
crystal form change (overlay of XRPD forms) [1]: have not changed
XRPD ([2]; FaSSIF, 24 h): Unchanged
XRPD [2, 6]: Unchanged
XRPD [2, 7]: Unchanged
XRPD ([2]; Water, 24 h): Crystal form B
crystal form transformation ([2]; buffers of different pHs and water): transformed to the crystal form B
XRPD ([2]; pH 1.2 buffer, 24 h): Crystal form B
XRPD ([2]; pH 3.0 buffer, 24 h): Crystal form B
XRPD ([2]; pH 4.5 buffer, 24 h): Crystal form B
XRPD ([2]; pH 6.8 buffer, 24 h): Crystal form B
XRPD ([2]; pH 7.4 buffer, 24 h): Crystal form B
crystal form transformation ([2]; simulated biological media): without crystal form transformation
Content of related substance D1 in starting material [3]: Not detected
Content of active pharmaceutical ingredient in sample [3]: 101.6%
Content of related substance D1 in sample [3]: 0.08%
SMILES: Cn1cc2cc(C(F)(F)c3nnc4ccc(-c5cnn(C6CC6)c5)nn34)c(F)cc2n1 [Crystal form A]
